Like-named read-outs stand apart in the source and are kept apart here.
What was measured:
P. falciparum Dd2 = test: SYBR green I asexual blood stage proliferation assay (96 h); type: cell-based, Plasmodium falciparum; details: Plasmodium falciparum, DD2, 11-pt dose response, 96hr
[1] = test system: P. falciparum Dd2 (PfLuc) line expressing firefly luciferase, asexual blood stage; test: microbe, parasite or virus in culture; type: cell-based, Plasmodium falciparum; details: Plasmodium falciparum
[2] = read-out: P. falciparum Sybr Green I ABS 11-pt Reconfirmation Dose Response (96hr): IC50
[3] = read-out: P. falciparum Sybr Green I ABS 11-pt Reconfirmation Dose Response (96hr): Maximum inhibition (%)
[4] = DD2, read-out: P. falciparum Luciferase ABS 11-pt Reconfirmation Dose Response (48hr): IC50, 11-pt dose response, 48hr
[5] = DD2, 8-pt dose response, 96hr, read-out: P. falciparum Luciferase ABS 8-pt Reconfirmation Dose Response (96hr): IC50
[6] = DD2, 8-pt dose response, 96hr, read-out: P. falciparum Luciferase ABS 8-pt Reconfirmation Dose Response (96hr): Maximum inhibition (%)
[7] = DD2, 11-pt dose response, 96hr, read-out: P. falciparum Luciferase ABS 11-pt Reconfirmation Dose Response (96hr): IC50
[8] = DD2, 11-pt dose response, 96hr, read-out: P. falciparum Luciferase ABS 11-pt Reconfirmation Dose Response (96hr): Maximum inhibition (%)
[9] = Sybr Green I, read-out: CDD P. falciparum Sybr Green I ABS 11-pt Reconfirmation Dose Response (96hr): IC50
[10] = Sybr Green I, read-out: CDD P. falciparum Sybr Green I ABS 11-pt Reconfirmation Dose Response (96hr): Maximum inhibition (%)
[11] = DD2, read-out: CDD P. falciparum Luciferase ABS 11-pt Reconfirmation Dose Response (48hr): IC50 (μM), 11-pt dose response, 48hr
[12] = DD2, 8-pt dose response, 96hr, read-out: CDD P. falciparum Luciferase ABS 8-pt Reconfirmation Dose Response (96hr): IC50
[13] = DD2, 8-pt dose response, 96hr, read-out: CDD P. falciparum Luciferase ABS 8-pt Reconfirmation Dose Response (96hr): Maximum inhibition (%)
[14] = DD2, 11-pt dose response, 48hr, read-out: CDD P. falciparum Luciferase ABS 11-pt Reconfirmation Dose Response (48hr): Maximum inhibition (%)
[15] = DD2, 11-pt dose response, 96hr, read-out: CDD P. falciparum Luciferase ABS 11-pt Reconfirmation Dose Response (96hr): IC50
[16] = DD2, 11-pt dose response, 96hr, read-out: CDD P. falciparum Luciferase ABS 11-pt Reconfirmation Dose Response (96hr): Maximum inhibition (%)
[17] = DD2, 11-pt dose response, 48hr, read-out: P. falciparum Luciferase ABS 11-pt Reconfirmation Dose Response (48hr): Maximum inhibition (%)

For c1cnn(C[C@@H]2C[C@@H]3CN(CC4CC4)CC[C@@H]3N2c2nccs2)c1 [DDD01081619], the IC50 (P. falciparum Dd2; [2]) was 2.7 µM, the Emax (P. falciparum Dd2; [3]) was 73.6% and the IC50 [1, 4] was 2.56 µM. The IC50 [1, 5] was 1.48 µM, the Emax [1, 6] was 94.2% and the IC50 [1, 7] was 1.87 µM. For the same compound, the Emax [1, 8] was 99.5%.
Cc1ccc(CNC2CC3(CCN(CCO)CC3)c3ccccc32)s1 (centres unmarked) [DDD01082017] was tested, and the IC50 (P. falciparum Dd2; [9]) was 2.9 µM, the Emax (P. falciparum Dd2; [10]) was 89.2% and the IC50 [1, 11] was 3.82 µM. The IC50 [1, 12] was 0.41 µM, the Emax [1, 13] was 91% and the Emax [1, 14] was 80.4%. The IC50 [1, 15] was 1.07 µM and the Emax [1, 16] was 98%.
COCCN1CCC2(CC1)CC(NCc1ccc(C)s1)c1ccccc12 (centres unmarked) [DDD01082023] was tested, and the IC50 (P. falciparum Dd2; [9]) was 2.42 µM, the Emax (P. falciparum Dd2; [10]) was 82.4% and the IC50 [1, 11] was 7.58 µM. The IC50 [1, 12] was 0.63 µM, the Emax [1, 13] was 90% and the IC50 [1, 15] was 1.55 µM. For the same compound, the Emax [1, 16] was 96.4%.
Cc1cc(C)cc(CN2C[C@H]3COC[C@H](N4CCN(C)CC4)[C@H]3C2)c1 [DDD01083756] showed an IC50 (P. falciparum Dd2; [9]) of 1.08 µM, an IC50 [1, 11] of 2.44 µM and an IC50 [1, 12] of 0.23 µM. It also gave an Emax [1, 14] of 79.9%, an IC50 [1, 15] of 0.791 µM and an Emax [1, 16] of 97.2%.
CC(C)N(C)Cc1cnc2n1CCN(C(=O)NC1CCCC1)C2 [DDD01085014] showed an IC50 (P. falciparum Dd2; [9]) of 3.09 µM, an Emax (P. falciparum Dd2; [10]) of 52.8% and an IC50 [1, 11] of over 12.5 µM. For the same compound, the IC50 [1, 12] was 0.4 µM, the Emax [1, 13] was 87.1% and the Emax [1, 14] was 50.3%. It also gave an IC50 [1, 15] of 0.478 µM and an Emax [1, 16] of 91%.
Work on Fc1cnc(N2CCCC3(CCN(Cc4ccsc4)C3)C2)nc1 (centres unmarked) [DDD01085292] yielded an IC50 (P. falciparum Dd2; [9]) of over 4.16 µM, an Emax (P. falciparum Dd2; [10]) of 70.7% and an IC50 [1, 11] of 2.31 µM. It also gave an IC50 [1, 12] of 1 µM, an Emax [1, 13] of 83.3% and an Emax [1, 14] of 68.3%. For the same compound, the IC50 [1, 15] was 1.53 µM and the Emax [1, 16] was 92.4%.
c1cc(-c2n[nH]cc2-c2ccnc(N3CCCCCC3)n2)ccn1 [DDD01235864] showed an IC50 (P. falciparum Dd2; [9]) of 0.00564 µM, an IC50 [1, 11] of over 4.16 µM and an IC50 [1, 12] of 0.00697 µM. The Emax [1, 13] was 93.5%, the Emax [1, 14] was 62.2% and the IC50 [1, 15] was 0.0308 µM. The Emax [1, 16] was 93.5% and the IC50 ([1]; 96 h incubation, Dd2 luciferase, read-out: 96 hour Pfluc IC50) was 0.03 µM.
With CN(CCO)C[C@@H]1CN(C2CCN(c3ccccc3Cl)CC2)C[C@@H]1CO [DDD01243670] the IC50 (P. falciparum Dd2; [9]) was 1.34 µM, the Emax (P. falciparum Dd2; [10]) was 86.9% and the IC50 [1, 11] was 0.887 µM. For the same compound, the IC50 [1, 12] was 0.4 µM, the Emax [1, 13] was 94.9% and the Emax [1, 14] was 96.9%. It also gave an IC50 [1, 15] of 0.653 µM and an Emax [1, 16] of 99.6%.
Work on Oc1cccc2ccc(CN3CCC4(CCNCC4)C3)nc12 [DDD01243747] yielded an IC50 (P. falciparum Dd2; [9]) of 10.8 µM, an Emax (P. falciparum Dd2; [10]) of 75.2% and an IC50 [1, 11] of 0.642 µM. For the same compound, the IC50 [1, 12] was 0.76 µM, the Emax [1, 13] was 92% and the Emax [1, 14] was 97.9%. The IC50 [1, 15] was 0.231 µM and the Emax [1, 16] was 101%.
Compound Cn1cc(CN2CCCC(CCc3ccccc3C(F)(F)F)C2)cn1 (centres unmarked) [DDD01243772] has an IC50 (P. falciparum Dd2; [2]) of 4.89 µM, an Emax (P. falciparum Dd2; [3]) of 62% and an IC50 [1, 4] of 4.26 µM. The IC50 [1, 5] was 1.59 µM, the Emax [1, 6] was 82.8% and the Emax [1, 17] was 66.1%. It also gave an IC50 [1, 7] of 4.34 µM.
For NC1CCCCN(Cc2cc(-c3ccccc3OC(F)(F)F)no2)C1 (centres unmarked) [DDD01244394], the IC50 (P. falciparum Dd2; [2]) was over 4.16 µM, the Emax (P. falciparum Dd2; [3]) was 69.6% and the IC50 [1, 4] was over 4.16 µM. For the same compound, the IC50 [1, 5] was 1.45 µM, the Emax [1, 6] was 88.9% and the Emax [1, 17] was 84.8%. It also gave an IC50 [1, 7] of over 1.39 µM and an Emax [1, 8] of 97.5%.
Work on CC1CCCCN1C(=O)c1coc(COc2cccc3cnccc23)n1 (centres unmarked) [DDD01245028] yielded an IC50 (P. falciparum Dd2; [9]) of 0.568 µM, an Emax (P. falciparum Dd2; [10]) of 97.7% and an IC50 [1, 11] of 0.751 µM. For the same compound, the IC50 [1, 12] was 0.61 µM, the Emax [1, 13] was 94% and the Emax [1, 14] was 97%. For the same compound, the IC50 [1, 15] was 0.469 µM and the Emax [1, 16] was 99.8%.
Compound CCN(Cc1c(F)cccc1Cl)c1cc(C2CCNCC2)nc(C)n1 [DDD01245231] has an IC50 (P. falciparum Dd2; [9]) of 2.5 µM, an Emax (P. falciparum Dd2; [10]) of 81.1% and an IC50 [1, 11] of 0.763 µM. The IC50 [1, 12] was 0.55 µM, the Emax [1, 13] was 91.3% and the Emax [1, 14] was 99.4%. For the same compound, the IC50 [1, 15] was 0.504 µM and the Emax [1, 16] was 99.8%.
Compound CCC[C@H]1CN(S(=O)(=O)c2ccc(-c3c(C)noc3C)s2)C[C@@H]1N [DDD01245572] has an IC50 (P. falciparum Dd2; [9]) of 5.57 µM, an Emax (P. falciparum Dd2; [10]) of 55.3% and an IC50 [1, 11] of over 12.5 µM. It also gave an IC50 [1, 12] of 1 µM, an Emax [1, 13] of 81.3% and an Emax [1, 14] of 19%. It also gave an IC50 [1, 15] of 2.92 µM and an Emax [1, 16] of 74.1%.

Source: publication PMC7155171, “Probing the Open Global Health Chemical Diversity Library for Multistage-Active Starting Points for Next-Generation Antimalarials” (ACS Infectious Diseases, 2020)
